The values that follow come from US10513494B2, “Methods, compounds, and compositions for anesthesia” (THE BOARD OF TRUSTEES OF THE LELAND STANFORD JUNIOR …, priority 2014, dated 2019).

For orientation: EC50 means the concentration at which the effect is half-maximal.

In assay [1] the test system is American bullfrog Rana catesbeiana tadpoles. As to the kind of experiment: Loss of righting reflex (LORR) in tadpoles. It counts as in vivo. The settings on record: Aquarana catesbeiana, water bath exposure. The procedure:
Anesthesia is defined as the combination of a lack of movement to a given stimulus, lack of awareness, amnesia and analgesia. The surrogate of such is manifest in the tadpole as the loss of righting reflex (LORR). Early prelimb-bud stage American bullfrog Rana catesbeiana tadpoles (5 per 50 ml beaker) were placed in room temperature oxygenated water buffered with 2.5 mM Tris HCl buffer (pH=7.4) and containing a concentration of test compound ranging from 0.11 uM-1 mM. Tadpoles were manually tipped every 5 min with a glass rod or stream of water until their righting reflex response stabilized or 120 minutes elapses. […] At the end of each study, tadpoles were transferred to fresh water to assess whether the anesthetic action was reversible.

A further assay relates to GABAaR. The settings on record: known literature value; read-out: EC50 for GABAaR potentiation; cited from earlier work.
For assay [2], the system named is American bullfrog Rana catesbeiana tadpoles. Nature of the assay: Loss of righting reflex (LORR) in tadpoles. The settings on record: Aquarana catesbeiana; text refers to Table 2; read-out: EC50 for GABAaR potentiation in tadpoles. It counts as in vivo.
Another assay has as its system native GABA-A receptors. As to the kind of experiment: Electrophysiology in hippocampal brain slices (paired pulse inhibition, CA1). The class given is cell-based. Conditions: rat hippocampal slice.

Like-named read-outs stand apart in the source and are kept apart here.

Method for native GABA-A receptors: Brain slices were prepared from male Sprague-Dawley rats that had been deeply anesthetized with isoflurane. The brain was quickly removed and placed in ice-cold artificial cerebrospinal fluid (ACSF) that was saturated with 95% O2 and 5% CO2 (carbogen) to achieve a pH of 7.4. The ACSF was composed of the following ions dissolved in spectrophotometry grade water (EMD Chemicals Inc., Billerica, Mass.) and stated in millimolar concentrations: Na 151.25, Cl 131.5, HCO3 26, K 2.5, Ca 2, Mg 2, SO4 2, H2PO4 1.25, and glucose 10. Coronal brain slices were prepared using a vibratome (Model 1500, Technical Products International Inc., St. Louis, Mo.) and 400-μm-thick slices were hemisected and placed on cellulose filter papers. They were stored at a gas (carbogen)-liquid (ACSF) interface in a holding chamber for at least 1 hour before use. […]
Evoked field potentials were measured using thin-walled glass pipettes (1.0 ID, 1.5 OD; Garner Glass Co., Claremont, Calif.) filled with ACSF. […]
Recorded signals were conditioned using an Axoclamp 2B preamplifier (Axon Instruments, Sunnyvale, Calif.) with a bandpass from DC to 30 kHz and gain of ×10. […] Responses were measured and plotted in real time to ensure that stable baselines (<±2.0% variation) were recorded for at least 20 minutes before the experiments began. […]

Take `Cc1cc(C(=O)OCc2c(Cl)cccc2Cl)c(C)n1-c1ccccc1` [C]: the EC50 in assay [1] was approximately 5 µM.
On to `CCOC(=O)c1cn(-c2ccc(Cl)cc2Cl)c(-c2ccc(Br)cc2)n1` [Compound 1n], for which, in the assay on GABAaR, the 50% effective concentration (EC50) is 0.19 µM.
Take `CCOC(=O)c1cc(-c2ccc(OC)cc2)n(-c2ccc(Cl)cc2)c1C` [Compound A]: the figures for the EC50 in assay [1] and in assay [2] were 1.5 µM and approximately 1.5 µM, respectively.
With `CCOC(=O)c1cc(-c2ccc(Cl)cc2)n(-c2ccccc2)c1C` [Compound B], in assay [1], the EC50 was determined as 0.53 µM. In addition, the “concentration at which paired pulse inhibition was noted” value in the assay with native GABA-A receptors was 100 µM.
For `Cc1cc(C(=O)OCc2ccc(Cl)cc2Cl)c(C)n1-c1ccccc1` [D], in assay [1], the half-maximal effective concentration (EC50) was approximately 20 µM.
Regarding `Cc1cc(C(=O)OCc2ccc(Cl)cc2)c(C)n1-c1ccc(F)cc1` [E], the EC50 in assay [1] was approximately 40 µM.
In the case of `COC(=O)c1cc(-c2ccc(C)c(C)c2)n(-c2ccc(Br)cc2)c1C` [F], the EC50 in assay [1] is approximately 20 µM.
Still for that read-out and setting: with `COC(=O)c1cc(-c2ccc(C)c(C)c2)n(-c2ccc(F)cc2Br)c1C` [G] the figure was approximately 3 µM.
As to `COC(=O)c1cc(-c2ccc(C)c(C)c2)n(-c2ccc(Cl)c(Cl)c2)c1C` [H], the EC50 in assay [1] was more than 40 µM.
Still for that read-out and setting: to `COC(=O)c1cc(-c2ccc(Br)cc2)n(-c2cccc(Cl)c2C)c1C` [J] belongs more than 40 µM.
Regarding `COC(=O)c1cc(-c2ccc(Br)cc2)n(-c2ccc(Br)cc2)c1C` [K], in assay [1], the EC50 is approximately 40 µM.
The same measure, in the same setting: to `CCOC(=O)c1cc(C)n(-c2cccc(Cl)c2Cl)c1-c1ccccc1` [M] belongs approximately 20 µM.
As to `Oc1ccccc1` [phenol], the 50% effective concentration (EC50) in the assay on GABAaR was 920 µM.
